According to patent publication US20150126534A1, “ENZYME AND RECEPTOR MODULATION” (Chroma Therapeutics Ltd, priority 2005, published 2015):
Counter-ions that a name gives are not always drawn. Like-named read-outs stand apart in the source and are kept apart here.

Experiments:
[1] = system: TNFα production in human whole blood; assay: LPS-stimulation of human whole blood, TNF-α ELISA; format: cell-based; settings: for IC50: Homo sapiens, 6 h; for Ratio IC50 WB/enzyme: whole blood TNFα IC50 / P38 MAP kinase IC50
Description: Whole blood was taken by venous puncture using heparinised vacutainers (Becton Dickinson) and diluted in an equal volume of RPMI1640 tissue culture media. 100 μl was plated in V-bottomed 96 well tissue culture plates. Inhibitor was added in 100 μl of RPMI1640 media, and 2 h later the blood was stimulated with LPS (E coli strain 005:B5, Sigma) at a final concentration of 100 ng/ml and incubated at 37° C. in 5% CO2 for 6 h. TNF-α levels were measured from cell-free supernatants by sandwich ELISA (R&D Systems #QTA00B).

p38 MAP kinase α = molecular target: T1, p38 MAP kinase α (Homo sapiens, UniProt Q16539); assay: P38 MAP kinase α inhibitory activity assay; format: biochemical; settings: ATP 90 μM; read-out: Enzyme inhibition IC50 nM (P38 MAP kinase)
T1 construct: full length human enzyme expressed in E coli as an N-terminally GST-tagged protein; GST (N); purchased Upstate (Dundee UK), assay run by the vendor; host or cells: E. coli
Description: The ability of compounds to inhibit p38 MAP kinase α (full length human enzyme expressed in E coli as an N-terminally GST-tagged protein) activity was measured in an assay performed by Upstate (Dundee UK). […] The reaction was initiated by the addition of the MgATP mix. After incubation for 40 minutes at room temperature, the reaction was stopped by the addition of 5 μl of a 3% phosphoric acid solution. 10 μl of the reaction was then spotted onto a P30 filtermat and washed three times for 5 minutes in 75 mM phosphoric acid and once in methanol, prior to drying and scintillation counting.
Dose response curves were generated from a ½ log dilution series of a stock inhibitor solution in DMSO. Nine dilutions steps were made from a top, final concentration of 10 μM, and a ‘no compound’ blank was included. Samples were run in duplicate. Data from scintillation counts were collected and subjected to free-fit analysis by Graphpad Prism software. From the curve generated, the concentration giving 50% inhibition was determined.

human aurora kinase A = molecular target: T2, human aurora kinase A (Homo sapiens, UniProt O14965); assay: Aurora kinase A inhibitory activity assay (Flashplate, 33P-ATP); format: biochemical; settings: 10 μM ATP; read-out: Enzyme inhibition IC50 nM (Aurora kinase A)
T2 construct: recombinant, full length human aurora kinase A, N-terminally fused to GST; GST (N); purchased ProQuinase (so in the source); host or cells: baculovirus / Sf21 insect cells
T2 sequence (O14965 1-403): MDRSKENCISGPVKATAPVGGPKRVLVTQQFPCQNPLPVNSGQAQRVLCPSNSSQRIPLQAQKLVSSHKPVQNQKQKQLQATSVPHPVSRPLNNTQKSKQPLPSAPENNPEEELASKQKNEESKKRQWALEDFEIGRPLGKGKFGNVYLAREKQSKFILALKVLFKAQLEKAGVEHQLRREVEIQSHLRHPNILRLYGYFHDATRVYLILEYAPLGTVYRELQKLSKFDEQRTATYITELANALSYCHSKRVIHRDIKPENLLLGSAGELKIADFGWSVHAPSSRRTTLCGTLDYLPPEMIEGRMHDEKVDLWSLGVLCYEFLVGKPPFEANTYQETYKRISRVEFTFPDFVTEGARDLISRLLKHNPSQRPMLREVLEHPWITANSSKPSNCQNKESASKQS
Description: The ability of compounds to inhibit aurora kinase A activity was measured using a microplate assay. In brief, 96-well Flashplates® (PerkinElmer Life Sciences) were pre-coated with myelin basic protein (MBP). MBP (100 ul of […] in PBS) was incubated at 37° C. for 1 h, followed by overnight incubation at 4° C. Plates were then washed with PBS and allowed to air dry.
Wells lacking inhibitor were used as vehicle controls and wells containing no enzyme were used to measure the ‘background’ signal. Plates were incubated overnight at 30° C. After incubation the contents of the wells were removed and the plates washed three times with PBS containing 10 mM tetra sodium pyrophosphate prior to scintillation counting using a Wallac MicroBeta TriLux.
Dose response curves were generated from 10 concentrations (top final concentration 10 μM, with 3-fold dilutions), using triplicate wells.
[…] values were determined by non-linear regression analysis, after fitting the data point results to the equation for sigmoidal dose response with variable slope (% activity against log concentration of compound), using Xlf it software.

[2] = system: U937 cells (monocytic cell line); assay: Cell proliferation inhibition assay (WST-1), U937; format: cell-based; settings: for IC50: Homo sapiens
Description: (§1) Following 24 h of growth cells were treated with compound. Plates were then re-incubated for a further 72-96 h before a WST-1 cell viability assay was conducted according to the suppliers (Roche Applied Science) instructions.
(§2) Data were expressed as a percentage inhibition of the control, measured in the absence of inhibitor, as follows: —
(§3) where S^i is the signal in the presence of inhibitor and S^o is the signal in the presence of DMSO.
(§4) Dose response curves were generated from 8 concentrations (top final concentration 10 μM, with 3-fold dilutions), using 6 replicates.

[3] = system: HCT116 (non-monocytic cell line); assay: Cell proliferation inhibition assay (WST-1), HCT116; format: cell-based; settings: for Ratio IC50 cell/enzyme: HCT116 cell proliferation IC50 / DHFR enzyme IC50; for IC50: Homo sapiens
Description: as §1, §2, §3, §4

PI 3-kinase γ = molecular target: T3, PI 3-kinase γ (Homo sapiens, UniProt P48736); assay: PI 3-kinase γ inhibition assay (HTRF); format: biochemical; settings: 100 μM MgATP; read-out: Enzyme inhibition IC50 nM (PI3-Kinase)
T3 construct: recombinant N-terminally His6-tagged, full length human enzyme; His6 (N); purchased Upstate (Dundee, UK), assay run by the vendor; host or cells: baculovirus / Sf21 insect cells
Source text: The measurement of PI 3-kinase γ activity is dependent upon the specific and high affinity binding of the GRP1 pleckstrin homology (PH) domain to PIP3, the product of PI 3-kinase activity. A complex is formed between europium-labelled anti-GST monoclonal antibody, a GST-tagged GRP1 PH domain, biotinylated PIP3 and streptavidin-allophycocyanin (APC). This complex generates a stable time-resolved fluorescence resonance energy transfer (FRET) signal, which is diminished by competition of PIP3, generated in the PI 3-kinase assay, with the biotinylated PIPS.
The reaction was initiated by the addition of the MgATP mix. After incubation for 30 minutes at room temperature, the reaction was stopped by the addition of 5 μl of stop solution containing EDTA and biotinylated phosphatidylinositol-3,4,5-trisphosphate. Finally, 5 μl of detection buffer was added, which contained europium-labelled anti-GST monoclonal antibody, GST-tagged GRP1 PH domain and streptavidin-APC. The plate was then read in time-resolved fluorescence mode and the homogenous time-resolved fluorescence (HTRF) signal was determined according to the formula HTRF=10000×(Em665 nm/Em620 nm).
Duplicate data points were generated from a ½ log dilution series of a stock solution of compound in DMSO. Nine dilutions steps were made from a top final concentration of 10 μM, and a ‘no compound’ blank was included. HTRF ratio data were transformed into % activity of controls and analysed with a four parameter sigmoidal dose-response (variable slope) application. The concentration giving 50% inhibition (1050) was determined.

[4] = LPS 100 ng/ml, read-out: Inhibition of TNFα production in human whole blood IC50
[5] = U-937, U937 monocytic cell line, read-out: Cell proliferation IC50 nM (U937 cells)
[6] = U937 cell proliferation IC50 / Aurora kinase A IC50
[7] = HCT-116, HCT116 non-monocytic cell line, read-out: Cell proliferation IC50 nM (HCT116)
[8] = U937 cell proliferation IC50 / DHFR enzyme IC50
[9] = U-937, read-out: Cell proliferation IC50 nM (U937 cells)

T1 sequence (Q16539 whole entry): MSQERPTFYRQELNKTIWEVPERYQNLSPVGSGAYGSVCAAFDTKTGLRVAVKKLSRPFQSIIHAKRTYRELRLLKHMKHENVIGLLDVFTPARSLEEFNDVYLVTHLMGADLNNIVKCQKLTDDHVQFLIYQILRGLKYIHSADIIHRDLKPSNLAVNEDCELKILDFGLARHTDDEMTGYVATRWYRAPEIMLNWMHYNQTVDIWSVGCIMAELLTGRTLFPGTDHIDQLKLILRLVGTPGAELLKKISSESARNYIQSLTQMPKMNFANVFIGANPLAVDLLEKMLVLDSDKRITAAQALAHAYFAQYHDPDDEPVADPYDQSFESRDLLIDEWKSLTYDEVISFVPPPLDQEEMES
T3 sequence (P48736 whole entry): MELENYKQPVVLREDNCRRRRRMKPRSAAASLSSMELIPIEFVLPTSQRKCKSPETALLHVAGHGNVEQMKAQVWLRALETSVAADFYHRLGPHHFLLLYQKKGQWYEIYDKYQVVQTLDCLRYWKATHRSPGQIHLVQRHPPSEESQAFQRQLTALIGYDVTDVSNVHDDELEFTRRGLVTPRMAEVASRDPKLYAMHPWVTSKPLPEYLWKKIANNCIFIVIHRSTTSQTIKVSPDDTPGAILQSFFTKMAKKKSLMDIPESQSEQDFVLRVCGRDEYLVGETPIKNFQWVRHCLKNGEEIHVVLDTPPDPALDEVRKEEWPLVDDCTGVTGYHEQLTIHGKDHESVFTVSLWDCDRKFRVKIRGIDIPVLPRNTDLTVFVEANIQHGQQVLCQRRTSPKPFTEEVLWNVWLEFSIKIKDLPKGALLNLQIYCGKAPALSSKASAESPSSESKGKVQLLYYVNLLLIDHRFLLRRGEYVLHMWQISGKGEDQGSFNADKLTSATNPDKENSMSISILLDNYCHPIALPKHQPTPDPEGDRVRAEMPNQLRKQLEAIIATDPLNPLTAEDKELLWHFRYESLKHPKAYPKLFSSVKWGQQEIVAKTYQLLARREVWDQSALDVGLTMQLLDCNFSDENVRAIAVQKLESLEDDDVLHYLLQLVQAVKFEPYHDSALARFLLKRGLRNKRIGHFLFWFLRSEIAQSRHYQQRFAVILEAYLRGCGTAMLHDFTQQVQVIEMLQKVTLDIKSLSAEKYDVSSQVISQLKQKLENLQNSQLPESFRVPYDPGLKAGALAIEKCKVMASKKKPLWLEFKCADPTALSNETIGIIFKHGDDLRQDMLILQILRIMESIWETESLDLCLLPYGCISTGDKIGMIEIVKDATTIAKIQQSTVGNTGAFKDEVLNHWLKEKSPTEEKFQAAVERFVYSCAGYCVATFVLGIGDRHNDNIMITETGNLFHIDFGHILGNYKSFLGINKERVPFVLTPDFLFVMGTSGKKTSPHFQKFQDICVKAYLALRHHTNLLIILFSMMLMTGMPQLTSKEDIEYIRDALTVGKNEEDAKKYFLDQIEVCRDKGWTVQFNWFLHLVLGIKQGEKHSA

## Nc1c(C(=O)c2ccc(F)cc2F)ccc(=O)n1-c1c(F)cccc1F [Compound 15, 6-Amino-5-(2,4-difluoro-benzoyl)-1-(2,6-difluoro-phenyl)-1H-pyridin-2-one, reference compound]
[1]; [4]
  IC50: 300 nM
[1]
  Ratio IC50 WB/enzyme: 6
p38 MAP kinase α
  IC50: 50 nM

## COc1cc2c(Oc3ccc(NC(=O)c4ccccc4)cc3)ccnc2cc1OCC[C@H](N)C(=O)OC(C)(C)C [Compound 14, (S)-2-Amino-4-[4-(4-benzoylamino-phenoxy)-6-methoxy-quinolin-7-yloxy]-butyric acid tert-butyl ester]
Human aurora kinase A
  IC50: 3000 nM
[2]; [5]
  IC50: 75 nM
[2]; U937 cell proliferation
  fold less active in the cell assay than cyclopentyl ester (Compound 12): ~20 fold
[2]; [6]
  Ratio IC50 cell/enzyme: 0.025

## Cc1c(CNc2ccc(C(=O)N[C@@H](CC(C)C)C(=O)OC3CCCC3)cc2)cnc2nc(N)nc(N)c12 [Compound 6, (S)-2-{4-[(2,4-Diamino-5-methyl-pyrido[2,3-d]pyrimidin-6-ylmethyl)-amino]-benzoylamino}-4-methyl-pentanoic acid cyclopentyl ester]
[3]; HCT116
  fold more potent than the unmodified analogue (2 G=N): 15 fold
[3]
  Ratio IC50 cell/enzyme: 0.04
[3]; [7]
  IC50: 110 nM
[2]; [5]
  IC50: 23 nM
[2]; [8]
  Ratio IC50 cell/enzyme: 0.013
[2]; U937 cells
  fold more potent than the unmodified analogue (2 G=N): 100 fold

## COc1cc2nccc(Oc3ccc(NC(=O)c4ccccc4)cc3)c2cc1OC [Compound 11, N-{4-(7-methoxy-6-methoxy-quinoline-4-yloxy)-phenyl}-benzamide, reference compound]
Human aurora kinase A
  IC50: 350 nM
[2]; [5]
  IC50: 430 nM
[2]; [6]
  Ratio IC50 cell/enzyme: 1.3

## COc1cc2c(Oc3ccc(NC(=O)c4ccccc4)cc3)ccnc2cc1OCC[C@H](N)C(=O)O [Compound 13]
Human aurora kinase A
  IC50: 500 nM
[2]; [5]
  IC50: > 5000 nM

## COc1cc2c(Oc3ccc(NC(=O)c4ccccc4)cc3)ccnc2cc1OCC[C@H](N)C(=O)OC1CCCC1 [Compound 12, (S)-2-amino-4-[4-(4-benzoylamino-phenoxy)-6-methoxy-quinolin-7-yloxy]-butyric acid cyclopentyl ester]
Human aurora kinase A
  IC50: 2300 nM
[2]; [5]
  IC50: 3.5 nM
[2]; [6]
  Ratio IC50 cell/enzyme: 0.0015

## Nc1c(C(=O)c2ccc(F)cc2F)ccc(=O)n1-c1c(F)cc(OCC[C@H](N)C(=O)OC2CCCC2)cc1F [Compound 16, cyclopentyl (S)-2-Amino-4-(4-[6-amino-5-(2,4-difluorobenzoyl)-2-oxo-2H-pyridin-1-yl]-3,5-difluorophenoxy)butanoate trifluoroacetate]
[1]; read-out: Inhibition of TNFα production in human whole blood IC50 nM
  IC50: 20 nM
[1]
  Ratio IC50 WB/enzyme: 0.8
p38 MAP kinase α
  IC50: 25 nM

## COc1cc(NCc2cnc3nc(N)nc(N)c3c2C)cc(OC)c1OC [Compound 2 G = N, 5-Methyl-6-((3,4,5-trimethoxyphenylamino)methyl)pyrido[2,3-d]pyrimidine-2,4-diamine, reference compound]
[3]
  Ratio IC50 cell/enzyme: 170
[3]; HCT-116, read-out: Cell proliferation IC50 nM (HCT116)
  IC50: 1700 nM
[2]; [9]
  IC50: 2200 nM
[2]; [8]
  Ratio IC50 cell/enzyme: 220
[2]; U937 versus HCT116
  selectivity between a monocytic and non-monocytic cell line (cell proliferation): no selectivity

## O=C(CCCCCCC(=O)Nc1ccccc1)NO [Compound 7, Suberoylanilide hydroxamic acid, reference compound]
[2]; [9]
  IC50: 400 nM

## COc1cc2c(Oc3ccc(NC(=O)c4ccccc4)cc3)ccnc2cc1OCC[C@H](NC1CCCCC1)C(=O)OC1CCCC1 [Compound 25, (S)-4-[4-(4-Benzoylamino-phenoxy)-6-methoxy-quinolin-7-yloxy]-2-cyclohexylamino-butyric acid cyclopentyl ester]
[3]; [7]
  IC50: 6100 nM
[2]; [5]
  IC50: 1900 nM

## CC(C)(C)OC(=O)[C@@H](N)CCOc1cc(F)c(-n2c(N)c(C(=O)c3ccc(F)cc3F)ccc2=O)c(F)c1 [Compound 18, (S)-2-Amino-4-{4-[6-amino-5-(2,4-difluoro-benzoyl)-2-oxo-2H-pyridin-1-yl]-3,5-difluoro-phenoxy}-butyric acid tert-butyl ester]
[1]; [4]
  IC50: 750 nM
[1]
  Ratio IC50 WB/enzyme: 18
p38 MAP kinase α
  IC50: 40 nM

## Nc1c(C(=O)c2ccc(F)cc2F)ccc(=O)n1-c1c(F)cc(OCC[C@H](N)C(=O)O)cc1F [Compound 17, (S)-2-Amino-4-(4-[6-amino-5-(2,4-difluorobenzoyl)-2-oxo-2H-pyridin-1-yl]-3,5-difluorophenoxy)butanoic acid]
p38 MAP kinase α
  IC50: 30 nM

## Cc1c(CNc2ccc(OCC[C@H](N)C(=O)OC3CCCC3)cc2)cnc2nc(N)nc(N)c12 [Compound 3, (S)-2-Amino-4-{4-[(2,4-diamino-5-methyl-pyrido[2,3-d]pyrimidin-6-ylmethyl)-amino]-phenoxy}-butyric acid cyclopentyl ester]
[3]
  Ratio IC50 cell/enzyme: 1.4
[3]; [7]
  IC50: 7300 nM
[2]; [5]
  IC50: 5100 nM
[2]; [8]
  Ratio IC50 cell/enzyme: 1.9

## Cc1nc(NC(=O)CC[C@H](N)C(=O)O)sc1-c1ccc(Cl)c(S(C)(=O)=O)c1 [Compound 22, (S)-2-Amino-4-[5-(4-chloro-3-methanesulfonyl-phenyl)-4-methyl-thiazol-2-ylcarbamoyl]-butyric acid]
PI 3-kinase γ
  IC50: 3600 nM
